Source: patent publication US8653049B2, “Normuramyl glycopeptide compounds” (priority 2008, dated 2014)
Where “and” joins values, the source holds several entries; their conditions need not be identical. Equal values may be shown once.

Experiments:
Salmonella enteritidis = test: Stimulation of innate immunity against Salmonella Enteritidis
[1] = test system: Trichophyton mentagrophytes TM 179; test: Adjuvant activity for hsp60 DNA vaccine against ringworm; assay type: in vivo, guinea pigs; design: key: semi-quantitative 0 to +++ method (where U=ulceration) for evaluation of dermal reactions, i.e. pathological lesions; semi-quantitative 0 to +++ method (where U=ulceration) for evaluation of dermal reactions, i.e. pathological lesions; semi-quantitative 0 to +++ method (where U=ulceration) for evaluation of dermal reactions, i.e. pathological lesions; semi-quantitative 0 to +++ method (where U=ulceration) for evaluation of dermal reactions, i.e. pathological lesions; U=ulceration; details: per animal
[2] = rabbits, liposomal preparations s.c. 100 nmol/kg, 3 rabbits per group; passes if below 1.1° C.
Summary of the method: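 Pyrogenicity was tested in New Zealand albino rabbits (3 per group) given liposomal preparations at 100 nmol/kg s.c., with temperature taken at 1, 2, 3, 4, 6 and 24 h. Controls were empty liposomes, liposomal and free MDP (50.7 nmol/kg) and B30-norAbu-MDP. A pass required summed ΔTmax below 1.1 °C.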

S. typhimurium = test: Stimulation of innate immunity against Salmonella Typhimurium; assay type: in vivo, BALB/c mice; details: liposomal preparations
Source text: Test compounds at doses of 5, 10, 25, 50, 100 and 200 nmol per mouse were applied in., s.c., i.v., or p.o. 3 and 1 days before experimental infection (10 animals per group). Various organs (intestines, liver, spleen, lungs) were examined for the presence of salmonellae on day 30 post infection. Results were expressed as numbers of colony forming units (CFU) of S. typhimurium per 1 gram of tissue. Statistically significant differences in numbers of CFU between the individual experimental groups were calculated by one-way analysis of variance.

C. albicans strain 2091 = test: Stimulation of innate immunity to Candida albicans infection, survival; details: s.c. 24 h after i.v. infection, vs PBS control, FIG. 20
[3] = liposomal, 20 nmol per dose p.o. 72 and 24 h before infection (LD50), 5 mice
[4] = group 1: 200 μg adjuvant at −48 h + 20 μg DNA
[5] = group 2: 200 μg adjuvant at −24 h + 20 μg DNA
[6] = group 3: 200 μg adjuvant at 0 h + 20 μg DNA
[7] = group 4: 200 μg adjuvant at +24 h + 20 μg DNA

CCCCCCCCCCCCCCC(CCCCCCCCCCCCCC)C(=O)OC[C@H]1OC(O)[C@H](NC(C)=O)[C@@H](OCC(=O)N[C@@H](CC)C(=O)N[C@H](CCC(=O)O)C(N)=O)[C@@H]1O (stereo partly shown) [B30-norAbu-MDP]
protective effect / survival rate in S. Enteritidis infection (Salmonella enteritidis; 0 or 1 case of death by day 12): good protective effects
Day 6 Intest.: clear/infected/dead (Salmonella enteritidis; [3]): 5/0/0
Day 6 Liver: clear/infected/dead (Salmonella enteritidis; [3]): 4/1/0
Day 6 Lungs: clear/infected/dead (Salmonella enteritidis; [3]): 5/0/0
Day 6 Spleen: clear/infected/dead (Salmonella enteritidis; [3]): 4/1/0
Day 12 Intest.: clear/infected/dead (Salmonella enteritidis; [3]): 4/0/1
Day 12 Liver: clear/infected/dead (Salmonella enteritidis; [3]): 4/0/1
Day 12 Lungs: clear/infected/dead (Salmonella enteritidis; [3]): 4/0/1
Day 12 Spleen: clear/infected/dead (Salmonella enteritidis; [3]): 4/0/1
Skin reaction Day 12 ([1]; group 1: 200 μg adjuvant at −48 h + 20 μg DNA electroporation prime and boost): + and ++
Skin reaction Day 21 [1, 4]: +++ (2×) and ++ (2×)
Skin reaction Day 28 [1, 4]: +
Skin reaction Day 12 ([1]; group 2: 200 μg adjuvant at −24 h + 20 μg DNA electroporation prime and boost): +++ (2×) and ++
Skin reaction Day 21 [1, 5]: ++ (2×) and + (2×)
Skin reaction Day 28 [1, 5]: + (2×) and 0
Skin reaction Day 12 ([1]; group 3: 200 μg adjuvant at 0 h + 20 μg DNA electroporation prime and boost): +++ and + (2×)
Skin reaction Day 21 [1, 6]: +
Skin reaction Day 28 [1, 6]: 0
Skin reaction Day 12 ([1]; group 4: 200 μg adjuvant at +24 h + 20 μg DNA electroporation prime and boost): +++ and + (2×)
Skin reaction Day 21 [1, 7]: ++
Skin reaction Day 28 [1, 7]: + (2×) and 0 (2×)
+ΔTmax (Sum of ΔTmax) [2]: 0.5 °C
induction of immune responses in intestines (S. typhimurium): able to induce immune responses in intestines
survival time and survival rate in C. albicans infection (C. albicans strain 2091; listed as free (non-liposomal) B30-norAbuMDP): lesser effect
survival time and survival rate in C. albicans infection (C. albicans strain 2091; listed as free B30-Nor-abuMDP): No effect
